Experimental data taken from ChEMBL document CHEMBL5365440, “Design, synthesis, and structure-activity relationship of a bicyclic HBV capsid assembly modulator chemotype leading to the identification of clinical candidate AB-506” (Bioorg Med Chem Lett, 2023).
In brackets after ≈: the same amount, converted by molar mass. Each block holds one compound with its values, some of them ahead of it.

Legend:
[1] = Microsomal stability in mouse liver microsomes assessed as intrinsic clearance; assay type: ADME, Microsome; conditions: read-out: CLH
Hepatitis B virus [2] = test: Antiviral activity against Hepatitis B virus infected in human HepDE19 cells assessed as reduction in viral replication incubated for 3 to 7 days by PCR analysis; assay type: functional, organism-based
[3] = Microsomal stability in human liver microsomes assessed as intrinsic clearance; assay type: ADME, Microsome; conditions: read-out: CLH
[4] = Cytotoxicity against human HepDE19 cells incubated for 48 hrs by cell titer-glo luminescent based cell viability assay; assay type: toxicity
Hepatitis B virus [5] = test: Antiviral activity against Hepatitis B virus infected in mouse AML12 cells assessed as reduction in viral replication incubated for 2 days by SYBR green based PCR analysis; assay type: functional, organism-based; conditions: AML12, 48 h
[6] = Aqueous solubility of the compound in PBS buffer at pH 7.4; assay type: physicochemical
Cytochrome P450 2D6 = Cytochrome P450 2D6 (Homo sapiens, UniProt P10635); test: Inhibition of CYP2D6 (unknown origin); assay type: ADME
[7] = Half life in dog at 2 mg/kg,iv; assay type: ADME, organism-based, Canis lupus familiaris; conditions: in vivo
[8] = AUC (0-infinity) in CD-1 mouse at 10 mg/kg,po; assay type: ADME, organism-based; design: dose 10 mg/kg, route po; conditions: in vivo
Cytochrome P450 2C19 = Cytochrome P450 2C19 (Homo sapiens, UniProt P33261); test: Inhibition of CYP2C19 (unknown origin); assay type: ADME
[9] = Cmax in dog at 10 mg/kg,po; assay type: ADME, organism-based, Canis lupus familiaris; design: dose 10 mg/kg, route po; conditions: in vivo
[10] = Half life in CD-1 mouse at 2 mg/kg,iv; assay type: ADME, organism-based; conditions: in vivo
[11] = Cmax in rat at 10 mg/kg,po; assay type: ADME, organism-based; design: dose 10 mg/kg, route po; conditions: in vivo
Cytochrome P450 1A2 = target: T1, Cytochrome P450 1A2 (Homo sapiens, UniProt P05177); test: Inhibition of CYP1A2 (unknown origin); assay type: ADME
T1 sequence (P05177 whole entry): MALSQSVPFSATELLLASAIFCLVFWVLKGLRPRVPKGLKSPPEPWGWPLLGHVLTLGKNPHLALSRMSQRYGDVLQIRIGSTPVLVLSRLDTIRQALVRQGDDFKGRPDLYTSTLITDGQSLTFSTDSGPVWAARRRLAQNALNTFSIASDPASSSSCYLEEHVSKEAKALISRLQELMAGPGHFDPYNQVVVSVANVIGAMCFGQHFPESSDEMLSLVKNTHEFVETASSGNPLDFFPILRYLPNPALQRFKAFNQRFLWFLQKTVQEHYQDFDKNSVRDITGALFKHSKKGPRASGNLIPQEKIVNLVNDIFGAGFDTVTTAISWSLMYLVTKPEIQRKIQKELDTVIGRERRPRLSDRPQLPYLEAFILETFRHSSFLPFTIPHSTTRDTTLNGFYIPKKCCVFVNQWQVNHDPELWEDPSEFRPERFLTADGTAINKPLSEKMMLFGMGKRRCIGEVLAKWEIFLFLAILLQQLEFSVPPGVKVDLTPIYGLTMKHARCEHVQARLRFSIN

in vivo [12] = conditions: rat, po, 10 mg/kg
Description: AUC (0-infinity) in rat at 10 mg/kg,po

Hepatitis B virus [13] = test: Antiviral activity against Hepatitis B virus Genotype D infected in NOD.CB17-PrkdcSCID/J mouse model assessed as log reduction in serum HBV DNA level at 10 mg/kg,po dosed for 7 consecutive days by qPCR analysis; assay type: functional
Cytochrome P450 3A4 = Cytochrome P450 3A4 (Homo sapiens, UniProt P08684); test: Inhibition of CYP3A4 (unknown origin); assay type: ADME
in vivo [14] = conditions: dog, po, 10 mg/kg
Description: AUC (0-infinity) in dog at 10 mg/kg,po

[15] = Clearance in rat at 2 mg/kg,iv; assay type: ADME, organism-based; conditions: in vivo
Hepatitis B virus [16] = test: Antiviral activity against Hepatitis B virus Genotype D infected in NOD.CB17-PrkdcSCID/J mouse model assessed as reduction in serum HBV DNA level at po dosed for 7 consecutive days; assay type: functional, organism-based
Hepatitis B virus [17] = test: Antiviral activity against Hepatitis B virus Genotype D infected in NOD.CB17-PrkdcSCID/J mouse model assessed as log reduction in serum HBV DNA level at 100 mg/kg,po dosed for 7 consecutive days by qPCR analysis; assay type: functional
[18] = Half life in rat at 2 mg/kg,iv; assay type: ADME, organism-based; conditions: in vivo
Hepatitis B virus [19] = test: Antiviral activity against Hepatitis B virus Genotype D infected in NOD.CB17-PrkdcSCID/J mouse model assessed as log reduction in serum HBV DNA level at 30 mg/kg,po dosed for 7 consecutive days by qPCR analysis; assay type: functional
Cytochrome P450 2C9 = Cytochrome P450 2C9 (Homo sapiens, UniProt P11712); test: Inhibition of CYP2C9 (unknown origin); assay type: ADME
[20] = Clearance in dog at 2 mg/kg,iv; assay type: ADME, organism-based, Canis lupus familiaris; conditions: in vivo
[21] = Clearance in CD-1 mouse at 2 mg/kg,iv; assay type: ADME, organism-based; conditions: in vivo

Sequence of Cytochrome P450 2C19 (P33261 whole entry): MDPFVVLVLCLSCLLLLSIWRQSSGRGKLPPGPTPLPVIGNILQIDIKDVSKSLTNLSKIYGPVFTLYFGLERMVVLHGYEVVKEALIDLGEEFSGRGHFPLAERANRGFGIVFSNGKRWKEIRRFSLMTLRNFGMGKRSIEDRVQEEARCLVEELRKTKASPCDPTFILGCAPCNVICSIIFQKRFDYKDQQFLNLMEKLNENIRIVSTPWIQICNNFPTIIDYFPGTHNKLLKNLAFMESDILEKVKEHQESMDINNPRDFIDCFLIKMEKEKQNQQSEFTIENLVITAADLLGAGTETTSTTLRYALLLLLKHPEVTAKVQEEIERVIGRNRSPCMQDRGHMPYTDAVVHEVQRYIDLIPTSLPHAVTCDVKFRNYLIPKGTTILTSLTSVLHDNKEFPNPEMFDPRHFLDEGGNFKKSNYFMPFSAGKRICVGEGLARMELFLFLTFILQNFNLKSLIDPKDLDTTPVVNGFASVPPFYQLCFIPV
Sequence of Cytochrome P450 2D6 (P10635 whole entry): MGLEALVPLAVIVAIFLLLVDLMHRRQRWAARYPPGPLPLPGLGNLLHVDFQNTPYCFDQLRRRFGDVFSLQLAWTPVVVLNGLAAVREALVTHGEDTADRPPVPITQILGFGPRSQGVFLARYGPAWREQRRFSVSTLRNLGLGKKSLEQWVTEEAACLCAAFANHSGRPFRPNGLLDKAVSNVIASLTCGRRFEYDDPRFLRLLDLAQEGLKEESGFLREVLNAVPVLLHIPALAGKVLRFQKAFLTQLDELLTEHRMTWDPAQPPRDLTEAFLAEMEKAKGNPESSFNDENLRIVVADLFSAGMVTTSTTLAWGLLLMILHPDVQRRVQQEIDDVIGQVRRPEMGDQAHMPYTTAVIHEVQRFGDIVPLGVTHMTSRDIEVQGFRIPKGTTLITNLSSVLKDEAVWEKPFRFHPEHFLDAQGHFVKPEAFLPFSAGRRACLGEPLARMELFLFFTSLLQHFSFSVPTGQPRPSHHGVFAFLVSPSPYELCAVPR
Sequence of Cytochrome P450 3A4 (P08684 whole entry): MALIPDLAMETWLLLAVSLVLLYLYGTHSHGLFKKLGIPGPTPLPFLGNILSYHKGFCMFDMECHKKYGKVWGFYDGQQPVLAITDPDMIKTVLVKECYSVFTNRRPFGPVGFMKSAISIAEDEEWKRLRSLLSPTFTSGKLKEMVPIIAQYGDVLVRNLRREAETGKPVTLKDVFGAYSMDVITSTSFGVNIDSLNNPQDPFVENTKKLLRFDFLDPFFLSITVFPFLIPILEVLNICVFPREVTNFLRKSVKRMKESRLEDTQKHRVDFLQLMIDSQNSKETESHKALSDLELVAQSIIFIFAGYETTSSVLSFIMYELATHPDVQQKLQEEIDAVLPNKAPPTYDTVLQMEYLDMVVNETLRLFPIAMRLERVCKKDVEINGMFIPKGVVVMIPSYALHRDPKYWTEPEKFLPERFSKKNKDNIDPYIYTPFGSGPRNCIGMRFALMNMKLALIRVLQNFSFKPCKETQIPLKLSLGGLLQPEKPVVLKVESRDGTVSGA
Sequence of Cytochrome P450 2C9 (P11712 whole entry): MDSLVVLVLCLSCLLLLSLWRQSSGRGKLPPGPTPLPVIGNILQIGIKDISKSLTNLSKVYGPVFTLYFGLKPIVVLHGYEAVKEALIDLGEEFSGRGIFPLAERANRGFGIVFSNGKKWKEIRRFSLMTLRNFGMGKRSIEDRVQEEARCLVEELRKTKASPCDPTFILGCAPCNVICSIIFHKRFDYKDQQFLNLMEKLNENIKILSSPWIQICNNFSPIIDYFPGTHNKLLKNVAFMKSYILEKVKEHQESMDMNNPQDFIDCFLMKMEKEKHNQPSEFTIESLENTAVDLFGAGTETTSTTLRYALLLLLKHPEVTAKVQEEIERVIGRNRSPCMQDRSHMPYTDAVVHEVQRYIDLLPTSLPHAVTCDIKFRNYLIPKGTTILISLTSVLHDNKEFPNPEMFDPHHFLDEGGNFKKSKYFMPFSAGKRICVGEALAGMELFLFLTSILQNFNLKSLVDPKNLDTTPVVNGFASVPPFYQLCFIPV

- microsomal CLint [1]: 45 µL/min/mg
- solubility [6]: 7.5 µM (≈ 3.44 µg/mL)
- EC50 (Hepatitis B virus [2]): 390 nM
- microsomal CLint [3]: 1 µL/min/mg
SMILES: O=C(N[C@H]1CCc2c(C(=O)Nc3ccc(F)c(Cl)c3)ccc(F)c21)OCc1ccncn1

- microsomal CLint [1]: 18 µL/min/mg
- solubility [6]: < 1.6 µM
- EC50 (Hepatitis B virus [2]): 120 nM
- microsomal CLint [3]: 6.9 µL/min/mg
SMILES: O=C(N[C@H]1CCc2c(C(=O)Nc3ccc(F)c(Cl)c3)ccc(F)c21)OCc1cnccn1

- microsomal CLint [1]: 33 µL/min/mg
- solubility [6]: < 1.6 µM
- EC50 (Hepatitis B virus [2]): 120 nM
- microsomal CLint [3]: 4.8 µL/min/mg
SMILES: O=C(N[C@H]1CCc2c(C(=O)Nc3ccc(F)c(Cl)c3)ccc(F)c21)OCc1ccon1

- microsomal CLint [1]: 17 µL/min/mg
- solubility [6]: < 1.6 µM
- EC50 (Hepatitis B virus [2]): 74 nM
- microsomal CLint [3]: 8 µL/min/mg
SMILES: O=C(N[C@H]1CCc2c(C(=O)Nc3ccc(F)c(Cl)c3)ccc(F)c21)OCc1cc[nH]n1

- microsomal CLint [1]: 20 µL/min/mg
- solubility [6]: 16.9 µM (≈ 7.79 µg/mL)
- EC50 (Hepatitis B virus [2]): 300 nM
- microsomal CLint [3]: 20 µL/min/mg
SMILES: O=C(N[C@H]1CCc2c(C(=O)Nc3ccc(F)c(Cl)c3)ccc(F)c21)OCCn1ccnc1

- microsomal CLint [1]: 21 µL/min/mg
- IC50 (Cytochrome P450 2D6): > 20000 nM
- half-life [7]: 11.4 h
- AUC(0-inf) [8]: 9870 ng·h/mL
- solubility [6]: 14.8 µM (≈ 6.84 µg/mL)
- IC50 (Cytochrome P450 2C19): > 20000 nM
- EC50 (Hepatitis B virus [2]): 77 nM
- Cmax [9]: 6820 ng/mL
- half-life [10]: 2.5 h
- Cmax [11]: 2850 ng/mL
- IC50 (Cytochrome P450 1A2): > 20000 nM
- AUC(0-inf) (in vivo [12]): 39600 ng·h/mL
- IC50 (Cytochrome P450 3A4): > 20000 nM
- AUC(0-inf) (in vivo [14]): 134000 ng·h/mL
- microsomal CLint [3]: 6.2 µL/min/mg
- clearance [15]: 4.6 mL/min/kg
- half-life [18]: 3.2 h
- IC50 (Cytochrome P450 2C9): > 20000 nM
- clearance [20]: 1.25 mL/min/kg
- clearance [21]: 18 mL/min/kg
SMILES: Cn1cnc(COC(=O)N[C@H]2CCc3c(C(=O)Nc4ccc(F)c(Cl)c4)ccc(F)c32)n1
- Activity (Hepatitis B virus [13]): 1 log10CFU
- Activity (Hepatitis B virus [16]): Dose-Dependent Effect
- Activity (Hepatitis B virus [17]): 2.9 log10CFU
- Activity (Hepatitis B virus [19]): 2.4 log10CFU

- microsomal CLint [1]: 23 µL/min/mg
- solubility [6]: < 1.6 µM
- EC50 (Hepatitis B virus [2]): 71 nM
- microsomal CLint [3]: 7.5 µL/min/mg
SMILES: O=C(N[C@H]1CCc2c(C(=O)Nc3ccc(F)c(Cl)c3)ccc(F)c21)OCc1ncco1

The remaining lines, values behind:

SMILES: COC(=O)N[C@H]1COc2c(C(=O)Nc3ccc(F)c(F)c3)cccc21
- microsomal CLint [1]: 41 µL/min/mg
- EC50 (Hepatitis B virus [2]): 1320 nM
- microsomal CLint [3]: 5 µL/min/mg

SMILES: COC(=O)N[C@H]1CCOc2c1ccc(F)c2C(=O)Nc1ccc(F)c(F)c1
- CC50 at 48 h [4]: > 25000 nM
- EC50 (Hepatitis B virus [2]): 3710 nM

SMILES: O=C(Nc1ccc(F)c(Cl)c1)c1cccc2c1OCCO2
- EC50 (Hepatitis B virus [5]): 200 nM

SMILES: COC(=O)N[C@H]1CCOc2c(C(=O)Nc3ccc(F)c(Cl)c3)cccc21
- CC50 at 48 h [4]: > 25000 nM
- EC50 (Hepatitis B virus [2]): 850 nM
- EC50 (Hepatitis B virus [5]): 280 nM

SMILES: COC(=O)N[C@H]1CCCc2c(C(=O)Nc3ccc(F)c(F)c3)cccc21
- microsomal CLint [1]: 21 µL/min/mg
- EC50 (Hepatitis B virus [2]): 8600 nM
- microsomal CLint [3]: 0.3 µL/min/mg

SMILES: COC(=O)N[C@H]1CCOc2c(C(=O)Nc3ccc(F)c(F)c3)c(F)cc(F)c21
- CC50 at 48 h [4]: > 25000 nM
- EC50 (Hepatitis B virus [2]): 800 nM

SMILES: COC(=O)N[C@H]1CCOc2c(C(=O)Nc3cc(F)c(F)c(F)c3)cccc21
- CC50 at 48 h [4]: > 25000 nM
- EC50 (Hepatitis B virus [2]): 1170 nM

SMILES: COC(=O)N[C@H]1CCOc2c1ccc(F)c2C(=O)Nc1ccc(F)c(Cl)c1
- CC50 at 48 h [4]: > 25000 nM
- EC50 (Hepatitis B virus [2]): 2230 nM
